Like-named read-outs stand apart in the source and are kept apart here.
How the values were obtained:
[1] = test system: SARS-COV-2; assay: microbe, parasite or virus in culture; assay type: cell-based; design: SI (Selectivity Index, CC50/IC50): unit not given here; details: for SI (Selectivity Index, CC50/IC50): SARS-COV-2, values >50 assumed to be 50; for IC50: read-out: SARS-COV-2 inhibition (IC50)
[2] = in vitro; details: African green monkey
[3] = Severe acute respiratory syndrome coronavirus 2, Vero cells, 24 hours infection
[4] = Severe acute respiratory syndrome coronavirus 2, Vero, 24 h

SMILES	SI (Selectivity Index, CC50/IC50) [1]	IC50 [1, 3] [µM]	CC50 [2] [µM]	IC50 [1, 4] [µM]	IC50 [1] [µM]
COc1cc2cc3c(c(-c4ccc5c(O)cc(C)nc5c4C)c2cc1OC)C(=O)OC3 [Example 146, 9-(4-hydroxy-2,8-dimethylquinolin-7-yl)-6,7-dimethoxynaphtho[2,3-c]furan-1(3H)-one]	1.0	> 50	> 50	–	–
COc1cc2cc3c(c(-c4ccc(N(C)Cc5cccnc5)cc4)c2cc1OC)C(=O)OC3 [Example 255, 6,7-dimethoxy-9-(4-(methyl(pyridin-3-ylmethyl)amino)phenyl)naphtho[2,3-c]furan-1(3H)-one]	15.74	3.18	> 50	–	–
COc1cc2cc3c(c(N4C[C@@H](C)O[C@@H](C)C4)c2cc1OC)C(=O)OC3 [Example 2, 9-((2S,6R)-2,6-dimethylmorpholino)-6,7-dimethoxynaphtho[2,3-c]furan-1(3H)-one]	1.00	> 50	> 50	–	–
CCCCN(C)c1ccc(-c2c3c(cc4cc(OC)c(OC)cc24)COC3=O)cn1 [Example 180, 9-(6-(butyl(methyl)amino)pyridin-3-yl)-6,7-dimethoxynaphtho[2,3-c]furan-1(3H)-one]	73.59	0.68	> 50	–	–
COc1cc2cc3c(c(-c4cnc(N5CCC(N(C)C)CC5)nc4)c2cc1OC)C(=O)OC3 [Example 205, 9-(2-(4-(dimethylamino)piperidin-1-yl)pyrimidin-5-yl)-6,7-dimethoxynaphtho[2,3-c]furan-1(3H)-one]	7.75	6.46	> 50	–	–
CCN(c1ncc(-c2c3c(cc4cc(OC)c(OC)cc24)COC3=O)cn1)C1CCCCC1.Cl [Example 78, 9-(2-(cyclohexyl(ethyl)amino)pyrimidin-5-yl)-6,7-dimethoxynaphtho[2,3-c]furan-1(3H)-one hydrochloride]	18.80	–	> 50	2.66	–
COc1cc2cc3c(c(-c4cc(C)nc5c(C(F)(F)F)cccc45)c2cc1OC)C(=O)OC3 [Example 136, 6,7-dimethoxy-9-(2-methyl-8-(trifluoromethyl)quinolin-4-yl)naphtho[2,3-c]furan-1(3H)-one]	1.0	> 50	> 50	–	–
COc1cc2cc3c(c(-c4ccc(N5CCC6(CC5)OCCO6)nc4)c2cc1OC)C(=O)OC3 [Example 166, 9-(6-(1,4-dioxa-8-azaspiro[4.5]decan-8-yl)pyridin-3-yl)-6,7-dimethoxynaphtho[2,3-c]furan-1(3H)-one]	18.50	2.7	> 50	–	–
COc1cc2cc3c(c(-c4cnc(N(C)CCC5OCCO5)nc4)c2cc1OC)C(=O)OC3 [Example 158, 9-(2-((2-(1,3-dioxolan-2-yl)ethyl)(methyl)amino)pyrimidin-5-yl)-6,7-dimethoxynaphtho[2,3-c]furan-1(3H)-one]	7.26	6.89	> 50	–	–
COc1cc2cc3c(c(-c4cnc(Oc5cccc6ccccc56)nc4)c2cc1OC)C(=O)OC3 [Example 21, 6,7-dimethoxy-9-(2-(naphthalen-1-yloxy)pyrimidin-5-yl)naphtho[2,3-c]furan-1(3H)-one]	1.00	> 50	> 50	–	–
CCN(Cc1cccnc1)c1ccc(-c2c3c(cc4cc(OC)c(OC)cc24)COC3=O)cc1 [Example 254, 9-(4-(ethyl(pyridin-3-ylmethyl)amino)phenyl)-6,7-dimethoxynaphtho[2,3-c]furan-1(3H)-one]	12.17	4.11	> 50	–	–
COc1cc2cc3c(c(-c4cnc(N(CCO)CCO)nc4)c2cc1OC)C(=O)OC3.Cl [Example 85, 9-(2-(bis(2-hydroxyethyl)amino)pyrimidin-5-yl)-6,7-dimethoxynaphtho[2,3-c]furan-1(3H)-one hydrochloride]	1.00	–	> 50	> 50	–
COc1cc2cc3c(c(-c4ccc(N(C)Cc5ccc(C)o5)nc4)c2cc1OC)C(=O)OC3 [Example 179, 6,7-dimethoxy-9-(6-(methyl((5-methylfuran-2-yl)methyl)amino)pyridin-3-yl)naphtho[2,3-c]furan-1(3H)-one]	49.02	1.02	> 50	–	–
CCNc1cccc(-c2c3c(cc4cc(OC)c(OC)cc24)COC3=O)c1 [Example 258, 9-(3-(ethylamino)phenyl)-6,7-dimethoxynaphtho[2,3-c]furan-1(3H)-one]	3.04	16.5	> 50	–	–
COc1cc2cc3c(c(N4CCc5sccc5C4)c2cc1OC)C(=O)OC3 [Example 3, 9-(6,7-dihydrothieno[3,2-c]pyridin-5 (4H)-yl)-6,7-dimethoxynaphtho[2,3-c]furan-1(3H)-one]	8.48	5.89	> 50	–	–
COc1cc2cc3c(c(-c4ccc(N(C)CCC5OCCO5)nc4)c2cc1OC)C(=O)OC3 [Example 161, 9-(6-((2-(1,3-dioxolan-2-yl)ethyl)(methyl)amino)pyridin-3-yl)-6,7-dimethoxynaphtho[2,3-c]furan-1(3H)-one]	7.74	6.46	> 50	–	–
COc1cc2cc3c(c(-c4ccc5nc(C)cc(O)c5c4)c2cc1OC)C(=O)OC3 [Example 147, 9-(4-hydroxy-2-methylquinolin-6-yl)-6,7-dimethoxynaphtho[2,3-c]furan-1(3H)-one]	1.0	> 50	> 50	–	–
COc1cc2cc3c(c(-c4cc5c(cc4OC(=O)OC(C)C)OCO5)c2cc1OC)C(=O)OC3 [Example 98, 6-(6,7-dimethoxy-3-oxo-1,3-dihydronaphtho[2,3-c]furan-4-yl)benzo[d][1,3]dioxol-5-yl isopropyl carbonate]	3.18	15.7	> 50	–	–
COc1cc2cc3c(c(-c4ccc(Cl)nc4)c2cc1OC)C(=O)OC3 [Example 185, 9-(6-chloropyridin-3-yl)-6,7-dimethoxynaphtho[2,3-c]furan-1(3H)-one]	149.26	0.33	> 50	–	–
COc1cc2cc3c(c(-c4ccnc5ccc(F)cc45)c2cc1OC)C(=O)OC3 [Example 148, 9-(6-fluoroquinolin-4-yl)-6,7-dimethoxynaphtho[2,3-c]furan-1(3H)-one]	1.0	> 50	> 50	–	–
COc1cc2cc3c(c(-c4ccc(N(C)c5nc(SC)n(C)n5)nc4)c2cc1OC)C(=O)OC3.Cl [Example 215, 6,7-dimethoxy-9-(6-(methyl(1-methyl-5-(methylthio)-1H-1,2,4-triazol-3-yl)amino)pyridin-3-yl)naphtho[2,3-c]furan-1(3H)-one]	2.55	–	> 50	19.6	–
COc1cc2cc3c(c(-c4ccc(N(C)C5CCCCC5)nc4)c2cc1OC)C(=O)OC3 [Example 175, 9-(6-(cyclohexyl(methyl)amino)pyridin-3-yl)-6,7-dimethoxynaphtho[2,3-c]furan-1(3H)-one]	42.02	1.19	> 50	–	–
COc1cc2cc3c(c(-c4ccc(C(=O)c5ccccc5)s4)c2cc1OC)C(=O)OC3 [Example 53]	19.94	2.51	> 50	–	–
COc1cc2cc3c(c(-c4ccc(-n5nc(N(C)C)nc5SC)nc4)c2cc1OC)C(=O)OC3.Cl [Example 223, 9-(6-(3-(dimethylamino)-5-(methylthio)-1H-1,2,4-triazol-1-yl)pyridin-3-yl)-6,7-dimethoxynaphtho[2,3-c]furan-1(3H)-one]	3.11	–	> 50	16.1	–
COc1cc2cc3c(c(-c4cccc5ncccc45)c2cc1OC)C(=O)OC3 [Example 132, 6,7-dimethoxy-9-(quinolin-5-yl)naphtho[2,3-c]furan-1(3H)-one]	1.0	> 50	> 50	–	–
COCCN(C)c1ccc(-c2c3c(cc4cc(OC)c(OC)cc24)COC3=O)cc1 [Example 256, 6,7-dimethoxy-9-(4-((2-methoxyethyl)(methyl)amino)phenyl)naphtho[2,3-c]furan-1(3H)-one]	82.38	0.61	> 50	–	–
COc1cc2cc3c(c(-c4cnc(N5CCCC(O)C5)nc4)c2cc1OC)C(=O)OC3.Cl (stereo not drawn) [Example 80]	4.21	–	–	–	–
COc1cc2cc3c(c(-c4cnc(N(C)c5ccc(C)c(C)c5)nc4)c2cc1OC)C(=O)OC3.Cl [Example 213, 9-(2-((3,4-dimethylphenyl)(methyl)amino)pyrimidin-5-yl)-6,7-dimethoxynaphtho[2,3-c]furan-1(3H)-one]	2.81	–	–	–	4.41
